Laboratory results from patent US20240254138A1, “TRICYCLIC PYRIMIDINES AS CYCLIN-DEPENDENT KINASE 7 (CDK7) INHIBITORS” (JANSSEN PHARMACEUTICA NV, priority 2021, published 2024).
Where two headings read alike, the source gives them in different places.

Key:
[1] = tested on: RNA Polymerase II Serine 5 phosphorylation (Rpb1 CTD, downstream substrate of CDK7) in A549 cells; assay: Imaging-based cellular RNA PolII Ser5 phosphorylation assay in A549 cells; format: cell-based, human; conditions: Homo sapiens, A549, A549 cells, wild-type CDK7; RNA PolII Ser5 phosphorylation; averaged over all measurements; read-out: CDK7_A549 Wild-type CDK7 (pIC50) (converted)
In short: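 A549 cells, seeded 1000/well in DMEM with 1% FBS and cultured 20 h, were treated with compound for 3 h at 37 °C. Ser5-phospho-Rpb1 CTD detected by immunofluorescence imaging after fixation and methanol permeabilization; IC50 from curve fit normalized to DMSO and 10 μM reference-compound controls.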

[2] = tested on: RNA Polymerase II Serine 5 phosphorylation in A549 cells overexpressing CDK7-mutant (C312S); assay: Imaging-based cellular RNA PolII Ser5 phosphorylation assay in A549 cells overexpressing CDK7-mutant (C312S); format: cell-based, human; conditions: Homo sapiens, A549, A549 cells overexpressing CDK7-mutant (C312S); RNA PolII Ser5 phosphorylation; averaged over all measurements; read-out: CDK7_A549 mutant hCDK7(pIC50) (converted)
In short: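 A549 cells overexpressing CDK7 C312S (with endogenous wild-type CDK7) were treated with compound for 3 h at 37 °C in 1% FBS medium. Phospho-Rpb1 CTD Ser5 was immunostained after fixation and imaged. IC50 came from curve fit of % control, normalised to DMSO and 10 μM reference-compound controls.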

[3] = target: CDK7/cyclinH/MAT1 trimeric complex (Homo sapiens, UniProt P50613); assay: In vitro CDK7 assay, potency of irreversible covalent inhibitors (kinact/KI), coupled PK/LDH ADP readout at 340 nm; conditions: for Ki: CDK7 (20 nM enz.) (KI, μM); for kinact: read-out: CDK7 (20 nM enz.) (kinact, s^−1), 20 nM enzyme
[4] = read-out: CDK7 (20 nM enz.) (kobs/[I], M^−1*s^−1), 20 nM enzyme
[5] = read-out: CDK7 (20 nM enz.) (kinact/KI, M^−1*s^−1), 20 nM enzyme

Sequence of CDK7/cyclinH/MAT1 trimeric complex (P50613 whole entry): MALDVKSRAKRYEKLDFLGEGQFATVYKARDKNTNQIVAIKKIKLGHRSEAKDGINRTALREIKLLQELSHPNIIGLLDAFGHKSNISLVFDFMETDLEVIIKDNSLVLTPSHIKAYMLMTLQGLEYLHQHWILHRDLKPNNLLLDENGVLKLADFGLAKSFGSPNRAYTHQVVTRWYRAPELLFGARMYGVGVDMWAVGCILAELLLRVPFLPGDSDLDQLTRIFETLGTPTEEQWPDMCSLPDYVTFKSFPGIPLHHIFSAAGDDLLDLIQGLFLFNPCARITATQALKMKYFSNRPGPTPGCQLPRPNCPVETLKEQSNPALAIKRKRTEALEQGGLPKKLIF
Sequence of CDK7/cyclinH/MAT1 trimeric complex (P51946 whole entry partner): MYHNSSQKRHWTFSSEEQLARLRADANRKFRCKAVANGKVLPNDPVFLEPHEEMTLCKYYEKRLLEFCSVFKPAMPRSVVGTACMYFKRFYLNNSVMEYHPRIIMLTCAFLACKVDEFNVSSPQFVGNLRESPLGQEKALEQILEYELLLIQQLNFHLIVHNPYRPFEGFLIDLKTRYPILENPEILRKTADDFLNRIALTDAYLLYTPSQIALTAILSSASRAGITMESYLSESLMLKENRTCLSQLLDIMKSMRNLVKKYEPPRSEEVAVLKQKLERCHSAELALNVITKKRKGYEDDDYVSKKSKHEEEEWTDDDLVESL
Sequence of CDK7/cyclinH/MAT1 trimeric complex (P51948 whole entry partner): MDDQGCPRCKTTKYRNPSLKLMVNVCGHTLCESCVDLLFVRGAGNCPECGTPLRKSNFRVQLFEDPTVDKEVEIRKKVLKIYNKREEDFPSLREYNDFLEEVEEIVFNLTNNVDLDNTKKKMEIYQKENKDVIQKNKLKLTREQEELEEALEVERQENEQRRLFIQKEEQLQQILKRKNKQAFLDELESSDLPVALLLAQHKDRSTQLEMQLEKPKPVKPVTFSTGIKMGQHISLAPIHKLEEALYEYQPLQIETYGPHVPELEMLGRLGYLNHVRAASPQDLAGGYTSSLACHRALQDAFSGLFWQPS

Row | IC50 [1] [nM] | IC50 [2] [nM] | kinact/KI [3, 4] [M⁻¹ s⁻¹] | Ki ([3]; 20 nM enzyme) [µM] | kinact [3] [s⁻¹] | kinact/KI [3, 5] [M⁻¹ s⁻¹] | CDK7 (20 nM enz.) (kobs/[I], M^−1*s^−1) ([3]; 20 nM enzyme) [M⁻¹ s⁻¹] | CDK7 (20 nM enz.) (kinact, s^−1) ([3]; 20 nM enzyme) [s⁻¹] | SMILES
1 | 20 | 6760 | 791 |  |  |  |  |  | C=CC(=O)N1CC[C@@H](N2CC(c3cc(C)c4c(c3)Nc3nccc(N5CCOCC5)c3[C@@H](C)O4)C2)C1 (single isomer, unassigned) [Compound 230]
2 | 380 | > 10000 |  | 1.61 | 6.1e-05 | 37.8 |  |  | C=CC(=O)N1CC[C@H](N2CC(c3cc(C)c4c(c3)Nc3nccc(N5CCOCC5)c3[C@H](C)O4)C2)C1 (single isomer, unassigned) [Compound 231]
3 | 4170 | > 10000 |  | 10.1 | 0.000115 | 11.3 |  |  | C=CC(=O)N1CC(N2CCC(c3ccc4c(c3)Nc3nccc(-c5cnn(C)c5)c3[C@H](C)O4)CC2)C1 (single isomer, unassigned) [Compound 232]
4 | 28.2 | 8710 | 1450 |  |  |  |  |  | C=CC(=O)N1CC(N2CCC(c3ccc4c(c3)Nc3nccc(-c5cnn(C)c5)c3[C@@H](C)O4)CC2)C1 (single isomer, unassigned) [Compound 233]
5 | 95.5 | 8510 |  |  |  |  | 610.385 |  | C=CC(=O)N1CC[C@H](N2CC(c3cc4c(c(C(F)(F)F)n3)OCc3c(N5CCOCC5)ccnc3N4)C2)C1 (single isomer, unassigned) [Compound 234]
6 | 40.7 | 3310 | 758 |  |  |  |  |  | C=CC(=O)N1CC[C@H](N2CC(c3cc4c(c(C(F)(F)F)c3)OCc3c(N5CCOCC5)ccnc3N4)C2)C1 (single isomer, unassigned) [Compound 238]
7 | 43.7 | 7080 | 1040 |  |  |  |  |  | C=CC(=O)N1CC[C@H](N2CC(c3cc(C)c4c(c3)Nc3nccc(N5CCOCC5)c3[C@@H](C)O4)C2)C1 (single isomer, unassigned) [Compound 239]
8 | 55 | 5130 |  | 0.0242 | 3.61e-05 | 1490 |  |  | C=CC(=O)N1CC[C@@H](N2CC(c3cc4c(c(C(F)(F)F)c3)OCc3c(N5CCOCC5)ccnc3N4)C2)C1 (single isomer, unassigned) [Compound 240]
9 | 95.5 | 10700 |  | 0.0269 |  | 1380 |  | 3.715e-05 | C=CC(=O)N1CC[C@@H](N2CC(c3cc4c(c(C(F)(F)F)n3)OCc3c(N5CCOCC5)ccnc3N4)C2)C1 (single isomer, unassigned) [Compound 241]
10 | 126 | > 10000 |  | 0.0802 | 3.93e-05 | 490 |  |  | C=CC(=O)N1CC(N2CC[C@@H](c3cc4c(c(C)n3)O[C@@H](C)c3c(N5CCOCC5)ccnc3N4)C2)C1 (single isomer, unassigned) [Compound 243]
11 | 56.2 | > 10000 |  | 0.0559 | 3.61e-05 | 645 |  |  | C=CC(=O)N1CC(N2CC[C@@H](c3cc4c(c(C)n3)O[C@H](C)c3c(N5CCOCC5)ccnc3N4)C2)C1 (single isomer, unassigned) [Compound 245]
12 | ~28.8 | > 10000 |  | 0.0946 | 8.4e-05 | 887 |  |  | C=CC(=O)N1CC(N2CCC(c3cc4c(c(C)n3)O[C@H](C)c3c(C5CCOCC5)ccnc3N4)CC2)C1 (single isomer, unassigned) [Compound 246]
13 | 776 | > 3980 |  | 1.57 | 5.48e-05 | 34.8 |  |  | C=CC(=O)N1CC(N2CCC(c3cc4c(c(C)n3)O[C@@H](C)c3c(C5CCOCC5)ccnc3N4)CC2)C1 (single isomer, unassigned) [Compound 247]
14 | 43.7 | > 10000 | 1110 |  |  |  |  |  | C=CC(=O)N1CC(N2CC(c3cc(C)c4c(c3)Nc3nccc(C5CCOCC5)c3[C@@H](C)O4)C2)C1 (single isomer, unassigned) [Compound 251]
15 | 2510 | > 10000 |  | 25.5 | 0.000306 | 12 |  |  | C=CC(=O)N1CC(N2CC(c3cc(C)c4c(c3)Nc3nccc(C5CCOCC5)c3[C@H](C)O4)C2)C1 (single isomer, unassigned) [Compound 252]
16 | 3020 | > 10000 |  | 10.7 | 3.55e-05 | 3.33 |  |  | C=CC(=O)N1CC(N2CCCN(C)[C@H](c3cc(C)c4c(c3)Nc3nccc(C5CCOCC5)c3CO4)C2)C1 (single isomer, unassigned) [Compound 255]
17 | 53.7 | 8320 |  | 0.0827 | 6.71e-05 | 811 |  |  | C=CC(=O)N1CC(N2CC[C@@H](c3cc(C)c4c(c3)Nc3nccc(C5CCOCC5)c3CO4)N(C)CC2)C1 (single isomer, unassigned) [Compound 256]
18 | 44.7 | 7240 |  | 0.0574 | 7.95e-05 | 1380 |  |  | C=CC(=O)N1CC(N2CC[C@H](c3cc(C)c4c(c3)Nc3nccc(C5CCOCC5)c3CO4)N(C)CC2)C1 (single isomer, unassigned) [Compound 257]
19 | 21.4 | 6460 | 619 |  |  |  |  |  | C#Cc1cc(C2CCN(C3CN(C(=O)C=C)C3)CC2)cc2c1O[C@@H](C)c1c(N3CCOCC3)ccnc1N2 (single isomer, unassigned) [Compound 258]
20 | > 10000 | > 10000 |  | 0.675 | 3.66e-05 | 54.2 |  |  | C=CC(=O)N1CC(N2CCCN(C)[C@@H](c3cc(C)c4c(c3)Nc3nccc(C5CCOCC5)c3CO4)C2)C1 (single isomer, unassigned) [Compound 259]
21 | 955 | > 3980 |  | 1.11 | 3.89e-05 | 34.9 |  |  | C=CC(=O)N1CC(N2CCC(c3cc4c(cn3)O[C@@H](C)c3c(N5CCOCC5)ccnc3N4)CC2)C1 (single isomer, unassigned) [Compound 261]
22 | 117 | > 10000 |  | 0.0518 | 3.7e-05 | 714 |  |  | C=CC(=O)N1CC(N2CC(c3cc4c(c(C)n3)O[C@H](C)c3c(N5CCOCC5)ccnc3N4)C2)C1 (single isomer, unassigned) [Compound 270]
23 | 692 | > 10000 |  | 0.683 | 4.07e-05 | 59.6 |  |  | CC#CC(=O)N1CC[C@H](N2CC(c3cc(C)c4c(c3)Nc3nccc(N5CCOCC5)c3[C@H](C)O4)C2)C1 (single isomer, unassigned) [Compound 281]
24 | 30.9 | > 10000 |  | 0.0397 | 5.01e-05 | 1260 |  |  | C=CC(=O)N1CC[C@@H](N2CCC(c3cc4c(c(C)n3)OCc3c(N5CCOCC5)ccnc3N4)CC2)C1 (single isomer, unassigned) [Compound 282]
25 | 69.2 | > 10000 |  | 0.187 | 7.12e-05 | 381 |  |  | C=CC(=O)N1CC[C@H](N2CCC(c3cc4c(c(C)n3)OCc3c(N5CCOCC5)ccnc3N4)CC2)C1 (single isomer, unassigned) [Compound 283]
26 | 2040 | > 10000 |  | 2 | 3.49e-05 | 17.4 |  |  | CC#CC(=O)N1CC[C@@H](N2CC(c3cc(C)c4c(c3)Nc3nccc(N5CCOCC5)c3[C@H](C)O4)C2)C1 (single isomer, unassigned) [Compound 284]
